Test results from patent US8790712B2, “Constitutional function-improving agents” (Cosmo Oil Co., Ltd., priority 2004, dated 2014).

Test system: superoxide dismutase (SOD)
Assay: SOD activity of thymus tissue (Example 3)
Assay type: in vivo, mouse
Settings: 10 mg/kg orally once a day for 7 days
Description: Mice (35 to 45 weeks old, BALB/cAJc1) preliminary raised for 1 week were injected with 10 mg of ALA hydrochloride per 1 kg mouse body weight once a day for 7 days continuously. ALA hydrochloride was adjusted to a concentration of […] with distilled water and orally administered to the mice. After the test, each mouse was sacrificed and the thymus of mouse was collected to measure superoxide dismutase (SOD) activity of its tissue. To the collected thymus, 1.0 ml of 0.25 M sucrose solution was added, and the mixture homogenized and then centrifuged at 10,000 G for 10 minutes, and the resulting supernatant solution was used as the enzyme solution. The measurement was carried out using an emission reagent for antioxidant ability measurement, MPEC (2-methyl-6-p-methoxyphenylethynylimidazopyrazinone) (manufactured by Atto Corp.). That is, 250 μl of a reaction solution containing 125 μl of 0.1 M potassium phosphate buffer (pH 7.5), 10 μl of the enzyme liquid, 60 μl of 0.1 unit/ml xanthine oxidase, 45 μl of distilled water and 10 μl of 0.3 mM MPEC was dispensed into Luminescencer-PSN (manufactured by Atto Corp.), 50 μl of 0.72 mM hypoxanthine (pH 7.5) was added for emission. For the calculation of emission inhibition ratio, the buffer was used instead of the enzyme liquid. For the calculation, a calibration curve was prepared using standard SOD, and the concentration calculation was carried out using this.
The test was carried out using 5 male and 5 female mice, a total of 10 animals, for each plot, and the values were shown by average value. It was confirmed that the SOD activity or GPx activity is improved in both cases of male and female in the ALA-treated plot.

NCC(=O)CCC(=O)O [ALA, 5-aminolevulinic acid]
SOD activity (female mice): 30.7 U/ml | Total SOD activity (female mice): 31.84 U/organ | SOD activity (male mice): 20.2 U/ml | Total SOD activity (male mice): 20.95 U/organ
